From US10517889B2, “Modulators of SMAD7 expression” (Ionis Pharmaceuticals, Inc., priority 2017, dated 2019)
Strand notation (5' to 3'): a small letter for the sugar, then the base; units joined by * are phosphorothioate-linked, units joined directly phosphodiester-linked; [ ] holds rarer units or linkages, { } end groups; capitals alone tell only the bases. k = constrained ethyl (cEt); [5mC] = 5-methylcytosine; d = 2'-deoxy (DNA)

Tested on: human SMAD7 mRNA
Assay: Antisense inhibition of human SMAD7 mRNA expression in Hep3B cells by 3-10-3 cEt gapmers, 10,000 nM, electroporation (Example 2)
Type: cell-based
Details: approximately 24 hours
Method: Antisense oligonucleotides were designed to target human SMAD7 mRNA and were tested for their effects on SMAD7 mRNA expression in vitro. The antisense oligonucleotides were tested in a series of experiments that had similar culture conditions, as described below. ION 771576, described in the studies above and which is a 5-10-5 MOE gapmer, was also included in these assays. Cultured Hep3B cells at a density of 20,000 cells per well were transfected using electroporation with 10,000 nM antisense oligonucleotide. After a treatment period of approximately 24 hours, RNA was isolated from the cells and SMAD7 mRNA levels were measured by quantitative real-time PCR. Primer probe set RTS5062 was used to measure human SMAD7 mRNA levels. SMAD7 mRNA levels were adjusted according to total RNA content, as measured by RIBOGREEN®. Results are presented as percent inhibition of SMAD7 mRNA expression, relative to untreated control cells.
The newly designed chimeric antisense oligonucleotides in the Tables below were designed as 3-10-3 cEt gapmers. The gapmers are 16 nucleosides in length, wherein the central gap segment comprises often 2′-deoxynucleosides and is flanked by wing segments on the 5′ direction and the 3′ direction comprising three nucleosides each. Each nucleoside in the 5′ wing segment and each nucleoside in the 3′ wing segment has a cEt sugar modification. The internucleoside linkages throughout each gapmer are phosphorothioate (P═S) linkages. All cytosine residues throughout each gapmer are 5-methylcytosines.
“Start site” indicates the 5′-most nucleoside to which the gapmer is targeted in the human gene sequence. “Stop site” indicates the 3′-most nucleoside to which the gapmer is targeted human gene sequence. […] Some of the oligonucleotides presented were complementary to SMAD7 mRNA sequences RefSeqNo. NM_001190821.1 (designated herein as SEQ ID NO: 3) or RefSeqNo. NM_001190822.1 (designated herein as SEQ ID NO: 4), and are presented in a separate table shown below.

[1] = Hep3B cells, electroporation with 10,000 nM antisense oligonucleotide, SMAD7 mRNA by RT-PCR (RTS5062), relative to untreated control cells
[2] = SMAD7 mRNA, Hep3B cells, 10,000 nM antisense oligonucleotide, electroporation, primer probe set RTS5062, relative to untreated control cells
[3] = Hep3B cells, 10,000 nM antisense oligonucleotide, electroporation, RT-PCR primer probe set RTS5062, relative to untreated control cells
[4] = Hep3B cells, electroporation with 10,000 nM antisense oligonucleotide, primer probe set RTS5062, relative to untreated control cells
[5] = Hep3B cells, electroporation, 10,000 nM, 3-10-3 cEt gapmers targeting SEQ ID NO: 3 and 4

## 790493 (kG*kT*kT*dG*dA*dT*d[5mC]*dT*dT*d[5mC]*d[5mC]*d[5mC]*dG*kT*kA*kA; antisense) [compound 790493]
[1]
  % Inhibition: 0%

## 790496 (kG*k[5mC]*kA*dG*dA*dG*dT*d[5mC]*dG*dG*d[5mC]*dT*dA*kA*kG*kG; antisense) [compound 790496]
[1]
  % Inhibition: 42%

## 790497 (kG*kT*kT*d[5mC]*dG*d[5mC]*dA*dG*dA*dG*dT*d[5mC]*dG*kG*k[5mC]*kT; antisense) [compound 790497]
[1]
  % Inhibition: 23%

## 790498 (k[5mC]*kT*k[5mC]*dT*dA*dG*dT*dT*d[5mC]*dG*d[5mC]*dA*dG*kA*kG*kT; antisense) [compound 790498]
[2]
  % Inhibition: 11%

## 790507 (kA*kA*kG*dA*dA*dG*dT*dT*dG*dG*dG*dA*dA*kT*k[5mC]*kT; antisense) [compound 790507]
[3]
  % Inhibition: 0%

## 790508 (k[5mC]*kA*k[5mC]*d[5mC]*dA*d[5mC]*dG*d[5mC]*dA*d[5mC]*d[5mC]*dA*dG*kT*kG*kT; antisense) [compound 790508]
[2]
  % Inhibition: 0%

## 790510 (k[5mC]*k[5mC]*k[5mC]*d[5mC]*dT*dG*dA*dG*dG*dT*dA*dG*dA*kT*k[5mC]*kA; antisense) [compound 790510]
[1]
  % Inhibition: 33%

## 790513 (k[5mC]*kA*k[5mC]*d[5mC]*dA*dG*d[5mC]*dT*dG*dA*d[5mC]*dT*d[5mC]*kT*kT*kG; antisense) [compound 790513]
[3]
  % Inhibition: 10%

## 790515 (k[5mC]*kG*kT*d[5mC]*dA*dG*d[5mC]*dT*dG*dG*dA*dT*dG*k[5mC]*k[5mC]*kG; antisense) [compound 790515]
[1]
  % Inhibition: 26%

## 790516 (kG*kT*kA*dA*d[5mC]*dT*dG*d[5mC]*dT*dG*d[5mC]*dG*dG*kT*kT*kG; antisense) [compound 790516]
[2]
  % Inhibition: 45%

## 790519 (k[5mC]*kT*kG*dG*dA*dG*dT*d[5mC]*d[5mC]*dG*dG*dG*dT*kT*kG*kT; antisense) [compound 790519]
[2]
  % Inhibition: 8%

## 790521 (kG*kG*k[5mC]*dT*dG*dT*dA*d[5mC]*dG*d[5mC]*d[5mC]*dT*dT*k[5mC]*kT*k[5mC]; antisense) [compound 790521]
[2]
  % Inhibition: 19%

## 790529 (kA*kG*k[5mC]*dT*dG*dA*dT*d[5mC]*dT*dG*d[5mC]*dA*d[5mC]*kG*kG*kT; antisense) [compound 790529]
[2]
  % Inhibition: 65%

## 790531 (kT*kG*k[5mC]*dT*dG*dA*dT*dG*dA*dA*d[5mC]*dT*dG*kG*k[5mC]*kG; antisense) [compound 790531]
[3]
  % Inhibition: 8%

## 790532 (kG*k[5mC]*kA*d[5mC]*dG*dG*dG*d[5mC]*dA*dG*d[5mC]*dT*dG*k[5mC]*kT*kG; antisense) [compound 790532]
[1]
  % Inhibition: 0%

## 790533 (kG*kG*k[5mC]*dT*dA*d[5mC]*d[5mC]*dG*dG*d[5mC]*dT*dG*dT*kT*kG*kA; antisense) [compound 790533]
[3]
  % Inhibition: 16%

## 790537 (kA*kG*k[5mC]*dA*dG*d[5mC]*dA*dA*dA*dG*dT*dA*dG*kT*kT*kT; antisense) [compound 790537]
[2]
  % Inhibition: 27%

## 790543 (kT*kG*kA*dA*dA*dA*dG*d[5mC]*dA*dA*dG*d[5mC]*dA*k[5mC]*kT*k[5mC]; antisense) [compound 790543]
[4]
  % Inhibition: 23%

## 790545 (kA*kA*kA*dG*dA*dG*dT*dT*dT*dG*d[5mC]*dA*dT*kG*kA*kA; antisense) [compound 790545]
[4]
  % Inhibition: 24%

## 790604 (kT*kA*k[5mC]*dG*dA*dG*dT*dG*dT*dA*dT*dG*dA*kG*kT*kT; antisense) [compound 790604]
[2]
  % Inhibition: 30%

## 790605 (kA*kT*k[5mC]*dA*dT*dA*d[5mC]*dG*dA*dG*dT*dG*dT*kA*kT*kG; antisense) [compound 790605]
[2]
  % Inhibition: 32%

## 790609 (kG*kT*k[5mC]*dT*dA*dA*dA*d[5mC]*dA*dT*dG*d[5mC]*dT*k[5mC]*kA*kT; antisense) [compound 790609]
[2]
  % Inhibition: 40%

## 790611 (kG*k[5mC]*kT*dT*dA*dT*dG*dT*dT*dA*dA*dA*dG*kT*k[5mC]*kT; antisense) [compound 790611]
[2]
  % Inhibition: 59%

## 790612 (kT*kA*kA*dA*d[5mC]*d[5mC]*dT*dT*dT*dG*dT*dA*dG*kT*kT*kA; antisense) [compound 790612]
[2]
  % Inhibition: 64%

## 790613 (k[5mC]*kA*kT*dT*dT*dA*dA*dA*d[5mC]*d[5mC]*dT*dT*dT*kG*kT*kA; antisense) [compound 790613]
[4]
  % inhibition of SMAD7 mRNA expression: 0%

## 790617 (k[5mC]*kT*kA*d[5mC]*dA*dA*dT*dG*d[5mC]*dT*dA*dA*dA*kT*kT*kT; antisense) [compound 790617]
[4]
  % Inhibition: 0%

## 790618 (kA*kG*k[5mC]*dA*d[5mC]*dT*dA*d[5mC]*dA*dA*dT*dG*d[5mC]*kT*kA*kA; antisense) [compound 790618]
[2]
  % Inhibition: 24%

## 790620 (kT*kA*kA*dT*dA*dA*dA*dT*d[5mC]*dT*d[5mC]*dA*dG*kG*kT*kT; antisense) [compound 790620]
[4]
  % Inhibition: 30%

## 790621 (kG*kT*kG*d[5mC]*dA*dT*d[5mC]*dT*dT*dT*dT*d[5mC]*dT*kT*kT*kA; antisense) [compound 790621]
[4]
  % inhibition of SMAD7 mRNA expression: 0%

## 790623 (kG*k[5mC]*kA*dT*dT*dT*dA*dT*dA*dT*dT*dA*dA*kA*kG*k[5mC]; antisense) [compound 790623]
[4]
  % inhibition of SMAD7 mRNA expression: 0%

## 790626 (kG*kA*kT*dA*dA*d[5mC]*dA*d[5mC]*d[5mC]*d[5mC]*dA*dT*dA*kG*kA*kA; antisense) [compound 790626]
[4]
  % inhibition of SMAD7 mRNA expression: 0%

## 790630 (kG*kG*kA*dA*d[5mC]*dA*dT*dA*dA*dA*d[5mC]*dT*d[5mC]*k[5mC]*kT*kT; antisense) [compound 790630]
[4]
  % Inhibition: 0%

## 790631 (kG*kT*kT*dT*dA*dA*dT*dG*dG*dA*dA*d[5mC]*dA*kT*kA*kA; antisense) [compound 790631]
[4]
  % Inhibition: 0%

## 790634 (kA*kG*kT*d[5mC]*dA*dG*dT*dT*dG*dG*dT*dT*dT*kG*kA*kG; antisense) [compound 790634]
[5]
  % inhibition of SMAD7 mRNA expression: 0%

## 790635 (kG*kG*kA*d[5mC]*dA*dG*dT*d[5mC]*dA*dG*dT*dT*dG*kG*kT*kT; antisense) [compound 790635]
[5]
  % inhibition of SMAD7 mRNA expression: 40%

## 790637 (kA*k[5mC]*k[5mC]*dT*dA*dG*dT*dT*d[5mC]*dG*d[5mC]*dA*dG*kA*kG*kT; antisense) [compound 790637]
[2]
  % Inhibition: 0%

## 790647 (k[5mC]*kG*k[5mC]*dG*dA*dG*dG*d[5mC]*dG*dG*dT*dG*dA*kT*kT*kG; antisense) [compound 790647]
[2]
  % Inhibition: 24%

## 790652 (k[5mC]*kA*k[5mC]*d[5mC]*dA*dG*dT*dT*dG*dG*dT*dT*dT*kG*kA*kG; antisense) [compound 790652]
[2]
  % Inhibition: 25%

## 790655 (k[5mC]*kG*kT*dG*dT*dT*dA*dA*dA*dG*d[5mC]*dT*dG*kA*kG*k[5mC]; antisense) [compound 790655]
[4]
  % inhibition of SMAD7 mRNA expression: 42%

## 790659 (kT*kG*k[5mC]*d[5mC]*dA*dG*dT*d[5mC]*dT*d[5mC]*dA*dA*dA*kT*kG*kG; antisense) [compound 790659]
[2]
  % Inhibition: 27%

## 790674 (kT*kG*k[5mC]*dT*dA*d[5mC]*d[5mC]*dT*dA*dA*dT*dG*dT*k[5mC]*kA*kA; antisense) [compound 790674]
[2]
  % Inhibition: 40%

## 790678 (kT*k[5mC]*k[5mC]*dT*dA*dT*dT*dG*dG*d[5mC]*dT*dG*dA*kT*k[5mC]*kT; antisense) [compound 790678]
[2]
  % Inhibition: 46%

## 790679 (kA*kG*kG*dT*dT*dA*dA*dT*d[5mC]*dA*d[5mC]*dT*dT*k[5mC]*k[5mC]*kT; antisense) [compound 790679]
[2]
  % Inhibition: 13%

## 790680 (kG*kG*kT*dG*dA*dG*dT*dA*dA*d[5mC]*d[5mC]*dA*dG*k[5mC]*kT*kG; antisense) [compound 790680]
[1]
  % Inhibition: 56%

## 790693 (k[5mC]*kA*kA*dA*dG*dT*dA*dT*dA*d[5mC]*d[5mC]*dT*dG*kT*kT*k[5mC]; antisense) [compound 790693]
[2]
  % Inhibition: 45%

## 790695 (kT*kG*kA*dA*dA*dT*dG*dG*dT*dG*d[5mC]*dT*d[5mC]*kT*kG*k[5mC]; antisense) [compound 790695]
[4]
  % inhibition of SMAD7 mRNA expression: 62%

## 790696 (k[5mC]*kA*kA*dA*dG*dG*dT*dA*dA*dG*d[5mC]*d[5mC]*dA*kG*k[5mC]*kT; antisense) [compound 790696]
[2]
  % Inhibition: 41%
